In patent US8198299B2, “Cycloalkylidene and heterocycloalkylidene inhibitor compounds” (Gilead Sciences, Inc., priority 2008, dated 2012):

Biological target: HDAC 1 (Homo sapiens, UniProt Q13547)
Assay: HDAC 1 inhibition assay with about 3-hour enzyme/compound preincubation (fluorophore/quencher peptide substrate)
Format: biochemical
Details: 3-hour preincubation of enzyme and compound at room temperature; read-out: HDAC 1 inhibitory activity (IC50 [μM]) (3-hour preincubation)
Description: HDAC inhibitory activity of the compound of Example 1 was measured by two types of assays in which HDAC 1 and 6 were used as a target molecule. The first assay was carried out without preincubation after addition of the enzyme. The test compound was suspended in and titrated in DMSO. It was then spotted into a 384-well test plate. The enzyme, HDAC 1 or 6, was diluted in assay buffer containing 25 mM Tris-HCl (pH 8.0), 137 mM NaCl, 2.7 mM KCl, and 0.01% Tween-20 and added to the pre-spotted compound. The peptide substrate containing a fluorophore/quencher pair was diluted in the same assay buffer and added to the compound/enzyme mix initiating the reaction. The reaction incubated at room temperature for about 45 minutes. A concentrated developer solution was diluted in the assay buffer, and added to the reaction. The reaction was incubated at room temperature for about 15 minutes and relative fluorescence was read on an instrument reader.
The second assay is similar to the first assay described above, except that preincubation is carried out for about 3 hours after the enzyme is introduced. The test compound was suspended in, and titrated in DMSO. It was then spotted into a 384-well test plate. The enzyme, HDAC 1 or 6, was diluted in the same assay buffer as used in the previous assay and added to the pre-spotted compound. The enzyme/compound mix was incubated at room temperature for about 3 hours. The peptide substrate containing a fluorophore/quencher pair was diluted in the assay buffer and added to the compound/enzyme mix initiating the reaction. The reaction incubated at room temperature for 45 minutes. A concentrated developer solution was diluted in the assay buffer, and added to the reaction. The reaction was incubated at room temperature for about 15 minutes and relative fluorescence was read on an instrument reader.

HDAC 1, sequence (Q13547 whole entry, species assumed): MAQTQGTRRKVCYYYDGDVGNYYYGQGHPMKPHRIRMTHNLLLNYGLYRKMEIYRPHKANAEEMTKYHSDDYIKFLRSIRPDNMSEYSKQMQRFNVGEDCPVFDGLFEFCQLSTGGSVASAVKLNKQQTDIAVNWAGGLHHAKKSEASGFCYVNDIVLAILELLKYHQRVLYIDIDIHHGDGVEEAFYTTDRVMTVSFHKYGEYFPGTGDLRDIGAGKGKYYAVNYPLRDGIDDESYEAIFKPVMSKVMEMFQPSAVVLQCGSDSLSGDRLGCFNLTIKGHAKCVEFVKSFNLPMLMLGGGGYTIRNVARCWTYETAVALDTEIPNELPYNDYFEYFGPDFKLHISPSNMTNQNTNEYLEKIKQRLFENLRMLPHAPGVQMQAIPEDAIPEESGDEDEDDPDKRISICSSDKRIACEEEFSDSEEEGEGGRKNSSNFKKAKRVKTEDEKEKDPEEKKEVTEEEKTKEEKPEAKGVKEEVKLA

Row | IC50 [µM] | Structure (SMILES)
1 | 0.0979 | O=C(NO)c1ccc(C2(c3nc(-c4cnccn4)cs3)CCOCC2)cc1 [Example 53, N-hydroxy-4-(4-(4-(pyrazin-2-yl)thiazol-2-yl)tetrahydropyran-4-yl)benzamide]
2 | 0.00231 | Nc1ccc(-c2ccc(F)cc2)cc1NC(=O)c1ccc(C2(c3ccccn3)CCOCC2)cc1 [Example 59, N-(4-amino-4′-fluorobiphenyl-3-yl)-4-(4-(pyridin-2-yl)tetrahydropyran-4-yl)benzamide]
3 | 0.0444 | Nc1ccccc1NC(=O)c1ccc(C2(c3nc(-c4cnccn4)cs3)CC2)cc1 [Example 55, N-(2-aminophenyl)-4-(1-(4-(pyrazin-2-yl)thiazol-2-yl)cyclopropyl)benzamide]
4 | 0.00792 | Cc1ccc(-c2ccc(N)c(NC(=O)c3ccc(C4(c5nccs5)CC4)cc3)c2)s1 [Example 52, N-(2-amino-5-(5-methylthiophen-2-yl)phenyl)-4-(1-(thiazol-2-yl)cyclopropyl)benzamide]
5 | 0.00576 | CN1CCN(c2ccc(-c3csc(C4(c5ccc(C(=O)Nc6ccccc6N)cc5)CCOCC4)n3)cc2)CC1 [Example 47, N-(2-aminophenyl)-4-(4-(4-(4-(4-methylpiperazin-1-yl)phenyl)thiazol-2-yl)tetrahydropyran-4-yl)benzamide]
6 | 0.00325 | CN1CCc2nc(C3(c4ccc(C(=O)Nc5cc(-c6ccc(F)cc6)ccc5N)cc4)CC3)sc2C1 [Example 56, N-(4-amino-4′-fluorobiphenyl-3-yl)-4-(1-(5-methyl-4,5,6,7-tetrahydrothiazolo[5,4-c]pyridine-2-yl)cyclopropyl)benzamide]
7 | 0.00428 | Cc1cnc(C2(c3ccc(C(=O)Nc4cc(-c5ccc(F)cc5)ccc4N)cc3)CCOCC2)s1 [Example 63, N-(4-amino-4′-fluorobiphenyl-3-yl)-4-(4-(5-methylthiazol-2-yl)tetrahydropyran-4-yl)benzamide]
8 | 0.00262 | Nc1ccc(-c2cccs2)cc1NC(=O)c1ccc(C2(c3nccs3)CC2)cc1 [Example 50, N-(2-amino-5-(thiophen-2-yl)phenyl)-4-(1-(thiazol-2-yl)cyclopropyl)benzamide]
9 | 0.00247 | Nc1ccc(-c2cccs2)cc1NC(=O)c1ccc(C2(c3ccccn3)CCOCC2)cc1 [Example 49]
10 | 0.00896 | Cc1nc(C2(c3ccc(C(=O)Nc4cc(-c5ccc(F)cc5)ccc4N)cc3)CCOCC2)sc1C [Example 62, N-(4-amino-4′-fluorobiphenyl-3-yl)-4-(4-(4,5-dimethylthiazol-2-yl)tetrahydropyran-4-yl)benzamide]
11 | 0.00749 | Cc1ccc(-c2ccc(N)c(NC(=O)c3ccc(C4(c5nccs5)CCOCC4)cc3)c2)s1 [Example 46, N-(2-amino-5-(5-methylthiophen-2-yl)phenyl)-4-(4-(thiazol-2-yl)tetrahydropyran-4-yl)benzamide]

The next lines start with the compound.

Row | Structure (SMILES) | IC50 [µM]
12 | CN1CCN(c2ccc(-c3csc(C4(c5ccc(C(=O)Nc6ccccc6N)cc5)CCOCC4)n3)cn2)CC1 [Example 25, N-(2-aminophenyl)-4-(4-(4-(6-(4-methylpiperazin-1-yl)pyridin-3-yl)thiazol-2-yl)tetrahydropyran-4-yl)benzamide] | 0.006
13 | Cc1nc2ccccn2c1-c1csc(C2(c3ccc(C(=O)NO)cc3)CC2)n1 [Example 2, N-hydroxy-4-{1-[4-(2-methyl-imidazo[1,2-a]pyridin-3-yl)-thiazol-2-yl]-cyclopropyl}-benzamide] | 0.024
14 | CN1CCc2nc(C3(c4ccc(C(=O)Nc5cc(F)ccc5N)cc4)CCOCC3)sc2C1 [Example 30, N-(2-amino-5-fluorophenyl)-4-(4-(5-methyl-4,5,6,7-tetrahydrothiazolo[5,4-c]pyridin-2-yl)tetrahydropyran-4-yl)benzamide] | 0.067
15 | Nc1ccc(F)cc1NC(=O)c1ccc(C2(c3nc(-c4cccnc4)cs3)CC2)cc1 [Example 19, N-(2-Amino-5-fluoro-phenyl)-4-[1-(4-pyridin-3-yl-thiazol-2-yl)-cyclopropyl]-benzamide] | 0.0518
16 | CC(=O)N1CCc2nc(C3(c4ccc(C(=O)Nc5cc(-c6cccs6)ccc5N)cc4)CCOCC3)sc2C1 [Example 28, 4-(4-(5-acetyl-4,5,6,7-tetrahydrothiazolo[5,4-c]pyridin-2-yl)tetrahydropyran-4-yl)-N-(2-amino-5-(thiophen-2-yl)phenyl)benzamide] | 0.0026
17 | Cc1nc2ccccn2c1-c1csc(C2(c3ccc(C(=O)Nc4ccccc4N)cc3)CCOCC2)n1 [Example 9, N-(2-Amino-phenyl)-4-{4-[4-(2-methyl-imidazo[1,2-a]pyridin-3-yl)-thiazol-2-yl]-tetrahydro-pyran-4-yl}-benzamide] | 0.003
18 | Nc1ccccc1NC(=O)c1ccc(C2(c3nc4c(s3)CCCC4)CC2)cc1 [Example 11, N-(2-amino-phenyl)-4-[1-(4,5,6,7-tetrahydro-benzothiazol-2-yl)-cyclopropyl]-benzamide] | 0.069
19 | CCOC(=O)N1CCc2nc(C3(c4ccc(C(=O)Nc5ccccc5N)cc4)CC3)sc2C1 [Example 12] | 0.016
20 | Nc1ccccc1NC(=O)c1ccc(C2(c3nc(-c4ccc(N5CCN(C6CC6)CC5)nc4)cs3)CCOCC2)cc1 [Example 34, N-(2-aminophenyl)-4-(4-(4-(6-(4-cyclopropylpiperazin-1-yl)pyridin-3-yl)thiazol-2-yl)tetrahydropyran-4-yl)benzamide] | 0.0066
21 | Nc1ccccc1NC(=O)c1ccc(C2(c3nc(-c4cnccn4)cs3)CCOCC2)cc1 [Example 41, N-(2-aminophenyl)-4-(4-(4-(pyrazin-2-yl)thiazol-2-yl)tetrahydropyran-4-yl)benzamide] | 0.00702
22 | O=C(NO)c1ccc(C2(c3nccs3)CCOCC2)cc1 [Example 43, N-hydroxy-4-(4-(thiazol-2-yl)tetrahydropyran-4-yl)benzamide] | 0.363
23 | Cc1nc2ccccn2c1-c1csc(C2(c3ccc(C(=O)Nc4ccccc4N)cc3)CCCC2)n1 [Example 7] | 0.008
24 | CCOc1csc(C2(c3ccc(C(=O)Nc4cc(-c5cccs5)ccc4N)cc3)CCOCC2)n1 [Example 37, N-(2-amino-5-(thiophen-2-yl)phenyl)-4-(4-(4-ethoxythiazol-2-yl)tetrahydropyran-4-yl)benzamide] | 0.00388
25 | Nc1ccccc1NC(=O)c1ccc(C2(c3nc(-c4ccc(N5CCCC5)nc4)cs3)CCOCC2)cc1 [Example 20, N-(2-aminophenyl)-4-(4-(4-(6-(pyrrolidin-1-yl)pyridin-3-yl)thiazol-2-yl)tetrahydropyran-4-yl)benzamide] | 0.019
26 | COCCOCc1csc(C2(c3ccc(C(=O)Nc4cc(-c5cccs5)ccc4N)cc3)CCOCC2)n1 [Example 32, N-(2-amino-5-(thiophen-2-yl)phenyl)-4-(4-(4-((2-methoxyethoxy)methyl)thiazol-2-yl)tetrahydropyran-4-yl)benzamide] | 0.0025
27 | COCCOc1ccc(-c2csc(C3(c4ccc(C(=O)Nc5ccccc5N)cc4)CCOCC3)n2)cn1 [Example 24, N-(2-aminophenyl)-4-(4-(4-(6-(2-methoxyethoxy)pyridin-3-yl)thiazol-2-yl)tetrahydropyran-4-yl)benzamide] | 0.013
28 | Nc1ccc(-c2cccs2)cc1NC(=O)c1ccc(C2(c3nc(CN4CCOCC4)cs3)CCOCC2)cc1 [Example 33, N-(2-amino-5-(thiophen-2-yl)phenyl)-4-(4-(4-(morpholinomethyl)thiazol-2-yl)tetrahydropyran-4-yl)benzamide] | 0.0029
29 | Nc1ccccc1NC(=O)c1ccc(C2(c3nc(-c4cccnc4)cs3)CCCC2)cc1 [Example 6, N-(2-Amino-phenyl)-4-[1-(4-pyridin-3-yl-thiazol-2-yl)-cyclopentyl]-benzamide] | 0.012
30 | CCOc1csc(C2(c3ccc(C(=O)Nc4cc(-c5ccc(F)cc5)ccc4N)cc3)CCOCC2)n1 [Example 40, N-(4-amino-4′-fluorobiphenyl-3-yl)-4-(4-(4-ethoxythiazol-2-yl)tetrahydropyran-4-yl)benzamide] | 0.00639
31 | Nc1ccc(-c2cccs2)cc1NC(=O)c1ccc(C2(c3nc(-c4cccnc4)cs3)CCOCC2)cc1 [Example 22, N-(2-amino-5-(thiophen-2-yl)phenyl)-4-(4-(4-(pyridin-3-yl)thiazol-2-yl)tetrahydropyran-4-yl)benzamide] | 0.014
32 | Nc1ccc(-c2ccc(Cl)s2)cc1NC(=O)c1ccc(C2(c3nccs3)CCOCC2)cc1 [Example 45, N-(2-amino-5-(5-chlorothiophen-2-yl)phenyl)-4-(4-(thiazol-2-yl)tetrahydropyran-4-yl)benzamide] | 0.00606
33 | CC(=O)N1CCc2nc(C3(c4ccc(C(=O)Nc5ccccc5N)cc4)CCOCC3)sc2C1 [Example 27, 4-(4-(5-acetyl-4,5,6,7-tetrahydrothiazolo[5,4-c]pyridin-2-yl)tetrahydropyran-4-yl)-N-(2-aminophenyl)benzamide] | 0.019
34 | Nc1ccccc1NC(=O)c1ccc(C2(c3nc(-c4cccnc4)cs3)CC2)cc1 [Example 5, N-(2-Amino-phenyl)-4-[1-(4-pyridin-3-yl-thiazol-2-yl)-cyclopropyl]-benzamide] | 0.012
